Assay: Lithium isotope levels in post-mortem neocortex (BA7), quadrupole inductively coupled plasma mass spectroscopy
From the text: Lithium (Li) isotope levels have been measured in post-mortem neocortex (BA7) of human subjects having bipolar disorder, without having bipolar disorder receiving lithium treatment at time of death. Neurologically intact individuals and subjects with schizophrenia were included as controls.
Bipolar brains show a 4% shift away from 7-Li within the total lithium content. Similar fractionation is not seen in schizophrenia or neurologically intact controls.

## [7Li] [7-Li]
Bipolar brains, FIG. 2, deviation from environmental distribution
  shift away from 7-Li within the total lithium content: 4%
Schizophrenia or neurologically intact controls
  fractionation (shift away from 7-Li) in brain: not seen

## [6Li] [Li-6]
Relative to Li-7, stated as applicants' discovery
  brain penetration: better able to penetrate the brain

Source: patent US20150342985A1, “COMPOSITIONS COMPRISING LITHIUM” (priority 2012, published 2015)
